Measurements published in patent publication US10793566B2, “Bruton's tyrosine kinase inhibitors” (Zibo Biopolar Changsheng Pharmaceutical Co. Ltd., priority 2016, dated 2020).

How the values were obtained:
LYN = LYN (Homo sapiens (Human), UniProt P07948); test: LYN kinase assay (HTRF); format: biochemical; settings: [ATP]=20 μM, LYN=0.12 nM
Description: Btk Kinase Assay and Other Kinases Assay Btk kinase activity was determined using a homogenous time resolved fluorescence (HTRF) methodology. Measurements were performed in a reaction volume of 15 μL using 384-well assay plates. Kinase enzyme, inhibitor, ATP and 1 μM peptide substrate were incubated in a reaction buffer compose of Hepes50 mM (pH7.0), NaN3 0.02%, BSA 0.01%, Orthocanadate 0.1 mM. After one hour, the kinase reaction was quenched by the addition of E t-labeled antibody and XL-665 in 1×Detection buffer containing 60 mM EDTA (Cisbio), and the mixture was allowed to incubate for one hour. The HTRF signal was measured on a multimode plate reader (EnVision Multilabel Reader, Perkin Elmer) with an excitation wavelength (λEx) of 330 nm and detection wavelengths (λEm) of 615 and 665 nm. Activity was determined by the ratio of the fluorescence at 665 nm to that at 615 nm. For each compound, enzyme activity as measured at various concentrations of compound, Negative control reactions were performed in the absence of inhibitor in two replicates and eight no enzyme controls were used to determine baseline fluorescence levels. IC50s were obtained according to the equation: […] For LYN assay, [ATP]=20 μM, LYN=0.12 n M. For LCK assay, [ATP]=20 μM, LCK=0.2 nM. For BLK assay, [ATP]=20 μM, BLK=0.6 n M.

Ramos cells = test: Calcium flux assay, anti-IgM stimulated Ramos cells; format: cell-based; settings: Homo sapiens, IgM-induced calcium influx, read-out: Ramos Ca Flux
Description: Calcium flux fluorescence-based assays were performed in aFDSS7000EX (Hamamatsu Photonics) fluorometric imaging plate reader according to manufacturer instructions. Compounds to be assayed were dissolved in DMSO, diluted to appropriate concentrations in Ca^2+ buffer ranging from 0 to 10 μM (at a dilution factor of 0.1), added 5 μl (6 X) to each well (the final DMSO concentration was 0.1% in each well). Then 12.5 μL 2× dye loading solution (Fluo-4 NW Calcium Assay Kits, Invitrogen) was added per well of a 384-well plate. Afterwards, actively growing Ramos cells (ATCC) in RPM1640 medium supplemented with 10% FBS (Invitrogen) were washed and re-plated in assay buffer (from Fluo-4 NW Calcium Assay Kits, Invitrogen) to approximately 6.4×10^6/ml (80000 cells/12.5 μL in 384-well plates). The plates were incubated at 37° C. for 30 minutes, then at room temperature for an additional 30 minutes. The plates were now ready to be used in an experiment. Immediately after the transfer and a 10-s recording of baseline fluorescence, the compound treated cells were stimulated with a goat anti-human IgM antibody ([…]; Jackson Immuno Research) and read in a FDSS for 240 seconds. Difference between the signal and that at baseline, designated adjusted relative fluorescence unit, was calculated by using a custom Excel (Microsoft, Redmond, Wash.) template to determine IgM-induced calcium influx and its inhibition by compounds. The table below show the result.

LYN, sequence (P07948 whole entry, species assumed): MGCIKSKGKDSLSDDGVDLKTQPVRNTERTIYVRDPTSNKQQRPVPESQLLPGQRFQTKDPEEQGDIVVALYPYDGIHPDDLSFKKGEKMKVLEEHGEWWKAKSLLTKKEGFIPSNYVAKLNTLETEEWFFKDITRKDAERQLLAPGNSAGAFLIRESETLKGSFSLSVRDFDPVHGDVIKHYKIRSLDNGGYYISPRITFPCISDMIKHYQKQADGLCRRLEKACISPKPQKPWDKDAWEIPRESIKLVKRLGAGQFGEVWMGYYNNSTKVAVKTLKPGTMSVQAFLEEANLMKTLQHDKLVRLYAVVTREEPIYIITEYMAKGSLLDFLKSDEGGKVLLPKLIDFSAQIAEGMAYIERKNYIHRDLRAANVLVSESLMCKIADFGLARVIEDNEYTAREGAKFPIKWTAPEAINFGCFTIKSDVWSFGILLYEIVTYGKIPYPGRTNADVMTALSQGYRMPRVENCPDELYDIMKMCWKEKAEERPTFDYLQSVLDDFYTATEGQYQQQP

C=CC(=O)N1CC[C@@H](n2nc(-c3ccc(Oc4ccccc4)cc3)c3cnccc32)C1 [Example 1, (R)-1-(3-(3-(4-phenoxyphenyl)-1H-pyrazolo[4,3-c]pyridin-1-yl)pyrrolidin-1-yl)prop-2-en-1-one] showed an IC50 (LYN) of no less than 10000 nM and an IC50 (Ramos cells) of 10 to 100 nM.
